From the NIST ThermoML archive (doi:10.1016/j.tca.2017.12.013)

Test: molar heat capacity at constant pressure
Settings: 101.33 kPa, Crystal 2, DSC

[Ag+].[Ag+].[S-2] [silver sulfide]
Settings	molar heat capacity at constant pressure [J/K/mol]
464.57 K	90.35
465.57 K	90.28
466.57 K	90.21
467.57 K	90.13
468.57 K	90.06
469.57 K	89.98
470.57 K	89.9
471.57 K	89.82
472.57 K	89.75
473.57 K	89.67
474.57 K	89.59
475.57 K	89.51
476.57 K	89.43
477.57 K	89.35
478.57 K	89.28
479.57 K	89.2
480.57 K	89.12
481.57 K	89.05
482.57 K	88.97
483.57 K	88.9
484.57 K	88.83
485.57 K	88.76
486.57 K	88.69
487.57 K	88.62
488.57 K	88.55
489.57 K	88.48
490.57 K	88.42
491.57 K	88.35
492.57 K	88.29
493.57 K	88.23
494.57 K	88.17
495.57 K	88.11
496.57 K	88.06
497.57 K	88
498.57 K	87.95
499.57 K	87.9
500.57 K	87.85
501.57 K	87.8
502.57 K	87.76
503.57 K	87.71
504.57 K	87.67
505.57 K	87.62
506.57 K	87.58
507.57 K	87.54
508.57 K	87.54
509.57 K	87.54
510.57 K	87.54
511.57 K	87.57
512.57 K	87.59
513.57 K	87.61
514.57 K	87.61
515.57 K	87.61
516.57 K	87.62
517.57 K	87.62
518.57 K	87.62
519.57 K	87.64
520.57 K	87.64
521.82 K	87.58
522.82 K	87.56
523.82 K	87.54
524.82 K	87.52
525.82 K	87.5
526.82 K	87.48
527.82 K	87.46
528.82 K	87.45
529.82 K	87.43
530.82 K	87.42
531.82 K	87.4
532.82 K	87.39
533.82 K	87.38
534.82 K	87.37
535.82 K	87.36
536.82 K	87.35
537.82 K	87.34
538.82 K	87.33
539.82 K	87.32
